Results from paper PMC12713470, “Design and Synthesis of Novel Chalcone Derivatives Targeting Bladder and Liver Cancer: Cytotoxicity Evaluation and Preliminary Mechanistic Studies” (ACS Omega, 2025).

Columns and labels:
Assay type in all cases: cell-based, human
HepG2 cells [1] = experiment: Clonogenic survival, HepG2; details: 4.62 and 9.25 μM, 48 h treatment, 10 days colony formation
Method: (§1) The cells were cultured in DMEM (Sigma-Aldrich, St. Louis, USA) and supplemented with 10% fetal bovine serum (Cultilab Ltda., Campinas, Brazil) and antibiotics (amphotericin). They were incubated at 37 °C in a humidified atmosphere with 5% CO2. Control cell groups, which were not exposed to the compound, were included in the experiments and were conducted in triplicate. The chalcone was dissolved in dimethyl sulfoxide (DMSO) for the assays.
(§2) The cells were trypsinized and plated into 24-well plates at a density of 1.0 × 10^5 cells/mL. Afterward, they were treated with the chalcone at concentrations of 2.15, 4.62, 9.25, and 18.50 μM for 48 h. Following treatment, the cells were washed with Hanks’ solution and trypsinized again, and approximately 1000 cells were reseeded into 12-well plates. These cells were incubated for 10 days in a CO2 incubator to allow colony formation. After the incubation period, the culture medium was removed, and the cells were washed with Hanks’ solution. Fixation was performed using 4% formaldehyde for 20 min, followed by […] in 100% methanol for 20 min. The cells were then stained with a 0.5% crystal violet solution prepared in 25% methanol. […] Absorbance was measured at 570 nm using a spectrophotometer, and the results were expressed as the percentage of colonies formed relative to the untreated control group.

T24 cells [2] = experiment: Clonogenic survival, T24; details: 18.50 μM (maximum concentration tested), 48 h treatment, 10 days colony formation
Method: as §1, §2

HepG2 cells [3] = experiment: Cell migration (wound), HepG2; details: 4.62 and 9.25 μM, 48 h
Method: as §1
Cells were seeded in 24-well plates at a density of 1.0 × 10^5 cells per well and incubated for 24 h to allow attachment. After this incubation, a sterile 200 μL pipet tip was used to scrape the cell monolayer, creating a wound. The initial wound area was photographed using an inverted microscope equipped with a camera. Following this, the cells were washed with Hanks’ solution and treated with the glycosylated chalcone at concentrations of 2.15, 4.62, 9.25, and 18.50 μM for 48 h. At the end of the treatment period, the cells were photographed again, and migration into the wound area was assessed. The percentage of cell migration was quantified using ImageJ and GraphPad Prism software.

T24 cells [4] = experiment: Morphology assay, T24; details: 2.15-18.50 μM, 48 h
Method: For the morphology assay, 2.0 × 10^5 cells were cultured in 12-well plates for 24 h to allow adherence. After this period, the cells were treated with the chalcone at concentrations of 2.15, 4.62, 9.25, and 18.50 μM for 48 h. After treatment, the cells were examined and photographed under an inverted microscope at 200× magnification.

HepG2 cells [5] = experiment: Apoptosis/necrosis analysis (annexin V/PI), HepG2; details: 2.15, 4.62, or 9.25 μM, 48 h
Method: Cells in the exponential growth phase were seeded in 12-well plates at a density of 1 × 10^5 cells per well in 3 mL of complete culture medium. Along with the experimental groups, four control groups were included: one without labeling, one labeled only with propidium iodide (PI), one labeled only with Annexin V, and one labeled with both PI and Annexin V. After 24 h, the cells were treated with the compound at concentrations of 2.15, 4.62, 9.25, and 18.50 μM for 48 h. Following the treatment period, the supernatant from each well was transferred to cytometry tubes and centrifuged at 1100 rpm for 10 min. The remaining adhered cells were washed with 1 mL of Hanks’ solution, and 500 μL of trypsin was added to detach the cells. The trypsin action was neutralized by adding 500 μL of complete medium, and the contents (detached cells plus precentrifuged supernatant) were collected into cytometry tubes, which were then centrifuged again at 1100 rpm for 10 min. After centrifugation, the supernatant was discarded. For labeling, Annexin V binding buffer was prepared by diluting 1 mL of component C in 5 mL of distilled water. Next, a 100 μg/mL propidium iodide working solution was prepared by diluting 5 μL of the 1 mg/mL stock (component B) in 45 μL of 1× buffer. […]

CCCc1cc(/C=C/C(=O)c2ccc(C)cc2)c(OC)c(OC)c1 [compound 3, (E)-3-(2,3-Dimethoxy-5-propylphenyl)-1-(p-tolyl)-prop-2-en-1-one]
colony formation, HepG2 (HepG2 cells [1]): reduction in colony formation
colony formation, T24 (T24 cells [2]): significant effect was observed
cell migration, HepG2 (HepG2 cells [3]): reduction of cell migration
morphology, T24 (T24 cells [4]): reduction in cell density was observed
percentage of apoptotic or necrotic cells, HepG2 (HepG2 cells [5]): did not result in a significant increase
